Experimental data as given in US20200247808A1, “Heterocyclic Tec-Family Kinase Inhibitors” (GB005, Inc., priority 2015, published 2020).
Entries after “also recorded” stand apart in the source; their conditions may differ.

Legend:
[1] = test system: TMD-8 human activated B cell diffuse large B cell lymphoma cells; assay: TMD-8 survival assay (Cell Titer-Glo); type: cell-based; settings: TMD8, TMD-8 cells, 72 h
Experimental: TMD-8 human activated B cell diffuse large B cell lymphoma cells were seeded in 96-well plates at a density of 20,000 cells/well in HyClone RPMI supplemented with 10% FBS (Fisher)/1% Penicillin/Streptomycin (HyClone) and incubated at 37° C., 5% CO2. Cells were treated in triplicate with 1,000 nM or 100 nM curves of compounds for 72h. Cell survival was measured by Cell Titer-Glo Luminescent Assay (Promega). EC50 values (50% proliferation in the presence of compound as compared to vehicle treated controls) were calculated from dose response compound curves using GraphPad Prism Software.

[2] = test system: TMD-8 xenograft B-cell lymphoma; assay: Antitumor activity study, TMD-8 xenograft; type: in vivo, mouse (Scid); settings: Scid mice, once daily oral gavage from d21
Experimental: Female C.B-17/IcrHsd-PrkdcsidLystbg-J mice (Scid mice; Harlan, 6-8 wk on delivery) were used for these studies. The mice were housed 4 per cage in a ventilated rack in a room under controlled conditions of temperature (20-25° C.) and humidity (40-70%), with a 12 h dark/light cycle. The animals were fed ad libitum with irradiated rodent diet (Harlan) and received autoclaved tap water. The cage, bedding and enrichment materials inside the home cage were autoclaved prior to use and all cage and animal manipulations were carried out inside a sterile laminar flow hood. Animals were acclimated for 1 week prior to cell injection.
TMD-8 human activated B cell diffuse large B cell lymphoma cells were grown in HyClone RPMI supplemented with 10% FBS (Fisher)/1% Penicillin/Streptomycin (HyClone) at 37° C., 5% CO2 and then prepared for injection. […]
When the mean tumor volume reached 200-300 mm^3 (d21) mice were randomized into groups of 10 based on tumor size and treatment was initiated. […] General condition and BW of all mice was assessed daily and tumor measurements collected twice per week (Mon and Thur). […]
The long (a) and short (b) axis of tumors were measured with electronic calipers (Mitutoyo) and tumor volume (mm^3) was calculated (a*b^2/2) and temporal changes in tumor volume and body weight were assessed day 21 (d21) to […].

[3] = target: EGFR (Homo sapiens, UniProt P00533); assay: EGFR kinase inhibition, KinaseProfiler radiometric protein kinase assay (Eurofins); type: biochemical; set-up: purchased Eurofins Pharma Discovery Services UK Limited (contract assay, KinaseProfiler); settings: 40 min room temperature
Experimental: In vitro potency of selected compound was defined against human BTK, EGFR, and ErbB2 kinases using Kinase Profiler radiometric protein kinase assays performed at Eurofins Pharma Discovery Services UK Limited.
Each kinase is diluted in buffer and all compounds were prepared to 50x final assay concentration in 100% DMSO. This working stock of the compound was added to the assay well as the first component in the reaction, followed by the remaining components as detailed in the assay protocol listed above. The reaction was initiated by the addition of the MgATP mix. […] (specific activity approx. 500 cpm/pmol, concentration as required) and variable test article concentrations. […] The reaction was stopped by the addition of 3% phosphoric acid solution. 10 μL of the reaction is then spotted onto a P30 filtermat and washed three times for 5 minutes in 75 mM phosphoric acid and once in methanol prior to drying and scintillation counting. In addition positive control wells contain all components of the reaction, except the compound of interest; however, DMSO (at a final concentration of 2%) were included in these wells to control for solvent effects as well as blank wells contain all components of the reaction, with a reference inhibitor replacing the compound of interest. This abolishes kinase activity and establishes the base-line (0% kinase activity remaining). […]

Chain of EGFR (P00533 25-1210): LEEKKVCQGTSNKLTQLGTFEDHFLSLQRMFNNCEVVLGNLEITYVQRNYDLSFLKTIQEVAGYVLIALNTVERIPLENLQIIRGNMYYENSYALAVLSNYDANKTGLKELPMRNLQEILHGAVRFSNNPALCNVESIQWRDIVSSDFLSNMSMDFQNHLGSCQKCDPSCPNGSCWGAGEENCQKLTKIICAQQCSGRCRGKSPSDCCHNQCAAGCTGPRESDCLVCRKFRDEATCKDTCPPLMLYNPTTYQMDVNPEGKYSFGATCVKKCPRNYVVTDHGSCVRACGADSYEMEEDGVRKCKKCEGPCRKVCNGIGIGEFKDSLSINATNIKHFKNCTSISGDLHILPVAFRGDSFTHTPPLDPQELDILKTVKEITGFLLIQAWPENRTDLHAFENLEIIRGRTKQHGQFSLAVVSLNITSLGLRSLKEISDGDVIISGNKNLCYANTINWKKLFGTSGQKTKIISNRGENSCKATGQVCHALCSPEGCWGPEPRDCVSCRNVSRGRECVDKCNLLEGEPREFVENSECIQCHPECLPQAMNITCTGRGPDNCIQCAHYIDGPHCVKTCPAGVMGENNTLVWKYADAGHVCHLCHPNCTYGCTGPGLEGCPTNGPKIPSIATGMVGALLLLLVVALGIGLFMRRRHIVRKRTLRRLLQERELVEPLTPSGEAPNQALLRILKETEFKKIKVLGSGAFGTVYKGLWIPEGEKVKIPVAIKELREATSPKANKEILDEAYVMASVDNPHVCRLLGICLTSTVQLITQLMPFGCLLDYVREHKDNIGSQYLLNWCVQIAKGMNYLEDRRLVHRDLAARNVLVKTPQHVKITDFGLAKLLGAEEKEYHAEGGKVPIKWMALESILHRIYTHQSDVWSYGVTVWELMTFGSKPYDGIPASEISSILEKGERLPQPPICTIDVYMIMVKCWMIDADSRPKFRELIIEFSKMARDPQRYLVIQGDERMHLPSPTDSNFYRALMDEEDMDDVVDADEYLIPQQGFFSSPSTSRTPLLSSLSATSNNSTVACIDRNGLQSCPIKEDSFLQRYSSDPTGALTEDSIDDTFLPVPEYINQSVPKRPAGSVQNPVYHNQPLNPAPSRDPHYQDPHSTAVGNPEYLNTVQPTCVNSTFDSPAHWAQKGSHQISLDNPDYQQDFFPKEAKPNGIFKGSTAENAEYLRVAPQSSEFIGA

Row | SMILES | EC50 [1] | Effect on TMD-8 xenograft tumor growth [2] | IC50 [3]
1 | C=CC(=O)N[C@H]1C[C@@H](n2nc(-c3ccc(Oc4ccccc4)cc3)c3c(N)ncnc32)C1 [Compound 2] | 1.9 nM | reduce growth of TMD-8 xenograft B-cell lymphoma; also recorded: reduce tumor growth | > 1000 nM
2 | CC#CC(=O)N[C@H]1C[C@@H](n2nc(-c3ccc(Oc4ccccc4)cc3)c3c(N)ncnc32)C1 [Compound 1] | 1 nM | reduce growth of TMD-8 xenograft B-cell lymphoma; also recorded: reduce tumor growth | > 1000 nM
